Test systems include HCC-2998 colon; BT-549 breast; MOLT-4 leukemia; SNB-19 CNS; K-562 leukemia; HCT-15 colon; CCRF-CEM leukemia; MDA-MB-231 breast; PC-3 prostate; HL-60(TB) leukemia.
Holding throughout (assay): DTP human tumour cell line panel, 48 h

By GI50 is commonly meant the concentration at which growth is held to half of that of the control. The term TGI denotes the concentration giving total growth inhibition. Read a low TGI as greater sensitivity of the cells.

“And” between values parts separate entries of the source, which are not always exact repeats. Equal values may be shown once.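 Grown in 96-well plates, cells were treated for 48 hours with each compound at five concentrations. Insufficient inhibition: endpoint recorded as highest concentration tested. At the GI50, growth is halved. TGI marks complete inhibition of growth.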 Some results are limits rather than exact numbers.

As for `COc1cc(C(=O)c2cnc(-c3c[nH]c4cccc(C)c34)[nH]2)cc(OC)c1OC`, the GI50 in the assay with HCC-2998 colon is 0.0183 µM; with BT-549 breast, 0.0204 µM; in the assay with MOLT-4 leukemia, 0.0378 µM; in the assay on SNB-19 CNS it was 0.00505 µM; in the assay on K-562 leukemia it was 0.00363 µM; in the assay with HCT-15 colon, 0.00659 µM. Also, the GI50 in the assay on CCRF-CEM leukemia is 0.00824 µM; with MDA-MB-231 breast it was 0.0204 µM; with PC-3 prostate, 0.00537 µM. In addition, the TGI is 29.4 µM with HCC-2998 colon; over 100 µM in the assay with MOLT-4 leukemia; over 100 µM in the assay on SNB-19 CNS; 17.4 µM with K-562 leukemia; over 100 µM in the assay with HCT-15 colon; over 100 µM in the assay on CCRF-CEM leukemia. For the same compound, in the assay with PC-3 prostate, the total growth inhibition concentration (TGI) was over 100 µM.
For `O=C1C(Cl)=C(Nc2ccc(S(=O)(=O)c3ccc(NC4=C(Cl)C(=O)c5ccccc5C4=O)cc3)cc2)C(=O)c2ccccc21`, the GI50 with HCC-2998 colon was 2.82 µM; in the assay on BT-549 breast it was 1.65 µM; with MOLT-4 leukemia it was 1.87 µM; with SNB-19 CNS, 3.11 µM; with K-562 leukemia it was 1.63 µM; in the assay with HL-60(TB) leukemia it was 3.24 µM. The GI50 in the assay on CCRF-CEM leukemia is 1.9 µM; with MDA-MB-231 breast, 1.61 µM. Moreover, the TGI in the assay with HCC-2998 colon was 6.33 µM; with BT-549 breast it was 3.24 µM; with MOLT-4 leukemia, 5.86 µM; in the assay on SNB-19 CNS, 13.9 µM; with K-562 leukemia it was 5.24 µM; with HL-60(TB) leukemia it was 8.62 µM. Moreover, the TGI was over 100 µM with CCRF-CEM leukemia and 3.51 µM with MDA-MB-231 breast.
With `Fc1ccccc1CN1COc2c(cc(Cl)c3cccnc23)C1`, the TGI in the assay on MOLT-4 leukemia was determined as 0.758 µM; in the assay with SNB-19 CNS it was 9.23 µM; in the assay on K-562 leukemia, 8.41 µM; in the assay with HCT-15 colon, 2.23 µM; with HL-60(TB) leukemia it was 10.4 µM; in the assay on MDA-MB-231 breast, 4.3 µM. In the assay on PC-3 prostate, the TGI was 10.6 µM.
As to `C/C=C/C=C/c1cc2cc3c(c(O)c2c(=O)[nH]1)C1(CC3)C(O)=c2c(=O)c3c(=O)cc(OC)c(=O)c=3c(=O)c2=C1O` (stereo unspecified), the TGI in the assay on HCC-2998 colon was 1.33 µM and 11.3 µM; in the assay on SNB-19 CNS it was 14.5 µM and 13.9 µM; in the assay on K-562 leukemia, over 38.4 µM; in the assay on HCT-15 colon, 3.68 µM and 15.1 µM; with HL-60(TB) leukemia, 3.95 µM; in the assay on CCRF-CEM leukemia, 1.13 µM and 11.2 µM. The TGI in the assay with MDA-MB-231 breast was 4.15 µM; in the assay on PC-3 prostate, 0.654 µM. Besides, in the assay on HL-60(TB) leukemia, the GI50 is 0.669 µM.
In the case of `CCN(CC)CCOC(COc1cc(C)cc(C)c1)COc1cc(C)cc(C)c1`, the GI50 is 1.72 µM in the assay with HCC-2998 colon; 6.12 µM in the assay on BT-549 breast; 2.08 µM in the assay on MOLT-4 leukemia; 2.3 µM in the assay with SNB-19 CNS; 3.01 µM with HCT-15 colon; 1.94 µM in the assay with HL-60(TB) leukemia. In addition, the GI50 is 2.25 µM in the assay with CCRF-CEM leukemia and 2.6 µM in the assay on PC-3 prostate. The TGI in the assay on HCC-2998 colon amounted to 3.5 µM; in the assay on BT-549 breast, 20.7 µM; with MOLT-4 leukemia it was 5.73 µM; in the assay with SNB-19 CNS it was 7.36 µM; in the assay on HCT-15 colon, 12.4 µM; in the assay on HL-60(TB) leukemia, 4.48 µM. In addition, the total growth inhibition concentration (TGI) is 8.24 µM in the assay on CCRF-CEM leukemia and 10.1 µM in the assay on PC-3 prostate.
For `O=C(Nc1ccn(C2CC(O)C(COC(c3ccccc3)(c3ccccc3)c3ccccc3)O2)c(=O)n1)c1ccccc1` (stereo unspecified), the concentration for total growth inhibition (TGI) in the assay with HCC-2998 colon was determined as 21.6 µM; in the assay with MOLT-4 leukemia it was 5.1 µM; with SNB-19 CNS, 14.2 µM; in the assay with K-562 leukemia, 7.3 µM; in the assay on HCT-15 colon, 6.4 µM; with HL-60(TB) leukemia, 5.52 µM. Besides, the TGI came out at 6.2 µM with CCRF-CEM leukemia, 7.5 µM in the assay with MDA-MB-231 breast and 5.35 µM with PC-3 prostate.
For the compound `CC(C)(C)N/N=C(/Cc1nc2c3c(ccc2[nH]c1=O)C(=O)c1ccccc1C3=O)C(=O)NC1=C(Cl)C(=O)c2ccccc2C1=O`, the TGI in the assay on HCC-2998 colon is over 100 µM; with BT-549 breast, over 100 µM; in the assay with MOLT-4 leukemia, over 100 µM; in the assay with SNB-19 CNS, over 100 µM; in the assay on K-562 leukemia, over 100 µM; in the assay with HCT-15 colon, 20.3 µM. Besides, the total growth inhibition concentration (TGI) in the assay with HL-60(TB) leukemia, in the assay with CCRF-CEM leukemia and in the assay on PC-3 prostate was over 100 µM throughout.
As to `Clc1ccc(C=Nc2ccc(-c3nc4ccccc4[nH]3)cc2)cc1`, the GI50 in the assay on HCC-2998 colon is over 100 µM; with BT-549 breast it was over 100 µM; in the assay with SNB-19 CNS, 55.6 µM; in the assay with HCT-15 colon, over 100 µM; with CCRF-CEM leukemia it was over 100 µM; with MDA-MB-231 breast, over 100 µM. For the same compound, in the assay with PC-3 prostate, the GI50 was over 100 µM. In addition, the TGI in the assay with HCC-2998 colon, with BT-549 breast, in the assay with SNB-19 CNS, in the assay with HCT-15 colon, in the assay on CCRF-CEM leukemia and in the assay on MDA-MB-231 breast was over 100 µM in each case. In addition, the TGI in the assay on PC-3 prostate is over 100 µM.
Consider `COc1cc(C2CC(c3ccccc3)=NN2C=O)ccc1Oc1ccnc2cc(Cl)ccc12` (stereo unspecified), for which the GI50 with HCC-2998 colon is over 100 µM; in the assay on BT-549 breast, 2.24 µM; in the assay with SNB-19 CNS, 26.6 µM; with HCT-15 colon, over 100 µM; in the assay with MDA-MB-231 breast, 28.5 µM; with PC-3 prostate it was 2.8 µM. Moreover, the TGI in the assay with HCC-2998 colon was over 100 µM; in the assay with BT-549 breast, 14.1 µM; in the assay with SNB-19 CNS, over 100 µM; in the assay on HCT-15 colon, over 100 µM; in the assay on MDA-MB-231 breast, over 100 µM; in the assay on PC-3 prostate it was over 100 µM.
For `C=CCNC(=S)NNC(=O)c1c(C)nc2sccn12`, the TGI in the assay on HCC-2998 colon, in the assay on MOLT-4 leukemia, in the assay with SNB-19 CNS, with K-562 leukemia, in the assay with HCT-15 colon and with HL-60(TB) leukemia was over 100 µM in each case. The compound also came in with a concentration for total growth inhibition (TGI) with CCRF-CEM leukemia of over 100 µM.
For the compound `CCCCCCCCCCCCCCCCCc1nc(Cl)nc(Cl)c1Cl`, the TGI with HCC-2998 colon, in the assay with MOLT-4 leukemia, in the assay with SNB-19 CNS, in the assay with K-562 leukemia, with HCT-15 colon and in the assay on HL-60(TB) leukemia was over 100 µM each time. The TGI in the assay with CCRF-CEM leukemia, in the assay on MDA-MB-231 breast and with PC-3 prostate was over 100 µM in each case.
As to `Cc1nc2c(C)ccc([N+](=O)[O-])c2c(NCCCN(C)C)c1C`, the TGI with HCC-2998 colon was over 55.4 µM; in the assay on MOLT-4 leukemia it was over 100 µM; in the assay with SNB-19 CNS, over 100 µM; with K-562 leukemia, over 100 µM; in the assay on HCT-15 colon, over 54.2 µM; with HL-60(TB) leukemia, over 68.3 µM. For the same compound, the TGI is over 100 µM in the assay on CCRF-CEM leukemia and over 47.9 µM with PC-3 prostate.
With `COC(=O)CC1(O)C(=O)OCc2c1cc1n(c2=O)Cc2c-1nc1ccccc1c2OC` (stereo unspecified), the TGI with HCC-2998 colon was over 100 µM; in the assay with MOLT-4 leukemia it was 0.165 µM; in the assay with SNB-19 CNS, 66.2 µM; in the assay with K-562 leukemia, over 100 µM; in the assay with HCT-15 colon, over 100 µM; in the assay with HL-60(TB) leukemia, 0.778 µM. In the assay with CCRF-CEM leukemia, this compound yielded a TGI of 0.594 µM.
As to `CN1C2C=CC(=O)C1C1C(=O)N(c3ccccc3)C(=O)C12` (stereo unspecified), the GI50 in the assay with HCC-2998 colon is 13.3 µM; in the assay on MOLT-4 leukemia it was 5.99 µM; in the assay with SNB-19 CNS, 13.3 µM; with K-562 leukemia, 10.2 µM; in the assay on HCT-15 colon, 5.52 µM; with HL-60(TB) leukemia it was 2.19 µM. Further, the GI50 was 7.51 µM with CCRF-CEM leukemia, 15.3 µM in the assay on MDA-MB-231 breast and 5.8 µM with PC-3 prostate. For the same compound, the TGI in the assay on HCC-2998 colon was 29.3 µM; in the assay with MOLT-4 leukemia, over 100 µM; with SNB-19 CNS, 29.5 µM; with K-562 leukemia it was over 100 µM; in the assay with HCT-15 colon, 20.3 µM; with HL-60(TB) leukemia, over 100 µM. Further, the TGI with CCRF-CEM leukemia is over 100 µM; with MDA-MB-231 breast, 37.8 µM; in the assay on PC-3 prostate it was 47.3 µM.
For `CCCC1C[C@H]2CCCCN2[C@H]2CCCN12` (stereo partly specified), the TGI with HCC-2998 colon was over 100 µM; in the assay with MOLT-4 leukemia it was over 100 µM; with SNB-19 CNS it was over 100 µM; in the assay on K-562 leukemia it was over 88.4 µM; with HCT-15 colon, over 75.5 µM; with HL-60(TB) leukemia it was over 64 µM. Besides, the TGI in the assay on CCRF-CEM leukemia was over 68.6 µM.
In the case of `Cc1ccc(NCCNCC(C)(C)O)c2c(=O)c3ccc(Cl)cc3sc12`, the GI50 is 1.38 µM in the assay with HCC-2998 colon; 1.67 µM in the assay on SNB-19 CNS; 1.05 µM in the assay with HCT-15 colon; 1.45 µM with HL-60(TB) leukemia; 1.16 µM in the assay with MDA-MB-231 breast; 1.35 µM with PC-3 prostate. Also, the TGI in the assay with HCC-2998 colon is 2.91 µM; in the assay on SNB-19 CNS it was 3.27 µM; with HCT-15 colon it was 2.32 µM; in the assay on HL-60(TB) leukemia, 3.17 µM; with MDA-MB-231 breast it was 2.57 µM; in the assay with PC-3 prostate it was 2.71 µM.
As to `CC(C)c1ccc(O)c(Cc2cc(C(C)C)cc(Cc3cc(C(C)C)ccc3O)c2O)c1`, the TGI turned out to be 3.2 µM with HCC-2998 colon; 4.68 µM in the assay on MOLT-4 leukemia; 3.12 µM in the assay with SNB-19 CNS; 4.78 µM in the assay on K-562 leukemia; 3.24 µM in the assay with HCT-15 colon; 4.36 µM with HL-60(TB) leukemia. Further, the TGI in the assay on CCRF-CEM leukemia is 6.91 µM.
With `CC(C)=C[C@@H]1C[C@H](C)[C@H]2CC[C@H](C)c3c(O)c(OC4OC(C)C(O)C(O)C4O)c(C)c1c32` (stereo partly specified), the GI50 was 0.734 µM in the assay on HCC-2998 colon; 18.9 µM in the assay with BT-549 breast; 8.35 µM in the assay on MOLT-4 leukemia; 15.7 µM with SNB-19 CNS; 3.97 µM with K-562 leukemia; 14.5 µM in the assay on HCT-15 colon. Also, the GI50 was 10.4 µM in the assay with HL-60(TB) leukemia, 12.8 µM with CCRF-CEM leukemia and 13.2 µM in the assay on MDA-MB-231 breast. Besides, the TGI in the assay with HCC-2998 colon turned out to be 3.97 µM; with BT-549 breast, 34.8 µM; with MOLT-4 leukemia, 23.9 µM; in the assay on SNB-19 CNS it was 29.2 µM; with K-562 leukemia, 19.6 µM; in the assay with HCT-15 colon, 27.6 µM. In addition, the TGI stood at 25.7 µM in the assay with HL-60(TB) leukemia, 26.3 µM in the assay with CCRF-CEM leukemia and 26.6 µM in the assay with MDA-MB-231 breast.

These data come from PubChem BioAssay (NCI).
